These results are taken from patent US10052340B2 (XIAMEN UNIVERSITY, priority 2012, dated 2018).

For test [1], the system named is KK-Ay mice. Put plainly: Mouse trial, KK-Ay diabetes and obesity model mice fed with high-fat diet. The class given is in vivo. Conditions: for serum cholesterol / serum triglycerides: ivermectin/derivatives 1.3 mg/kg; for cholesterol in high density lipoprotein in serum / cholesterol in low density/very low density lipoprotein in serum / serum saccharides (glucose) level: 1.3 mg/kg i.p. daily, 14 days. The source says:
In order to detect the efficacy of abamectin/avermectin, ivermectin and the derivative doramectin in the body of a diabetes and obesity mouse model, we choose diabetes and obesity mouse model mice, KK-Ay mice, as the experimental subject.

Test [2] deals with wild-type C57BL/6J mice. Briefly: Mouse trial, wild-type mice fed with high-fat diet. Conditions: high-fat diet, 1.3 mg/kg i.p. daily, 14 days. The method, then: (§1) Wild-type C57BL/6J mice of 9-10 weeks old, and FXR gene deletion homozygous mice (FXR^−/−) and diabetes and obesity mouse model mice (KK-Ay) with the same background are used, fed with high-fat diet (Research Diets, D12492), with free access to water, in SPF grade animal room in experimental animal center, Xiamen University. […] Intraperitoneal injection is performed one time at 9 o'clock every morning, continued for 14 days, and the mice are measured for body weight and the food intake every two days. At the end of 14 days, the mice are provided with free access to water, and after being hungry for 6 h, the mouse body weights are measured, and the percentage of the final body weight relative to the initial body weight before the treatment of the injection trial indicates the change of mouse body weight. Then blood is sampled from the eye balls, and sera are obtained by separation. The components in serum are detected by the following kits respectively: sugar-oxidase method (Beijing Applygen); insulin (Crystal Chem. Inc., USA); total cholesterol and cholesterol in high and low density lipoprotein (Bioassay Systems, USA); triglyceride (Beijing Applygen and WAKO Chemicals Inc., Japan); free fatty acids (Bioassay Systems, USA); and aspartate aminotransferase and alanine aminotransferase (Biosino Bio-technology and Science Inc., Beijing, China). Mouse liver is taken, a part of which is fixed with paraformaldehyde, and embedded with paraffin, sectioned, and stained with hematoxylin and eosin, and a part of which is cryopreserved with liquid nitrogen for use in extracting RNA for measuring gene expression with fluorescence quantitative PCR.

The test system of test [3] is FXR gene deletion homozygous mice (FXR−/−). Briefly: Mouse trial, FXR knockout mice fed with high-fat diet. Type of test: in vivo. Particulars: 1.3 mg/kg i.p. daily, 14 days. The method, then: as §1
[4] abbreviates: i.p. daily 14 days, GW4064 30 mg/kg.

`CC(C)c1onc(-c2c(Cl)cccc2Cl)c1COc1ccc(/C=C/c2cccc(C(=O)O)c2)c(Cl)c1` [GW4064]: the “serum free fatty acids” value in test [1] (i.p. daily 14 days, ivermectin 1.3 mg/kg, GW4064 30 mg/kg) was “significantly decrease”. Besides, in test [1] (setting [4]), the serum cholesterol entry is reported as “significantly decrease” and the serum triglycerides entry is listed as “significantly decrease”.

As to `CCC(C)[C@H]1O[C@]2(C=C[C@@H]1C)C[C@@H]1C[C@@H](C/C=C(\C)[C@@H](O[C@H]3C[C@H](OC)[C@@H](O[C@H]4C[C@@H](OC)[C@H](O)[C@@H](C)O4)[C@H](C)O3)[C@@H](C)/C=C/C=C3\CO[C@@H]4[C@H](O)C(C)=C[C@@H](C(=O)O1)[C@]34O)O2` (stereo partly shown) [abamectin/avermectin], in test [2], the “cholesterol level in high density lipoprotein” value is reported as “significantly downregulated”; the “cholesterol levels in low density and very low density lipoprotein” value is “downregulated”; the serum cholesterol level result is recorded as “significantly decreases”; the serum glucose level entry was “significantly decreases”. The “serum triglyceride (Tg) level” value in test [2] is recorded as “significantly decrease”. Moreover, in test [1], the “cholesterol in high density lipoprotein in serum” value was “significantly decrease”, the “cholesterol in low density/very low density lipoprotein in serum” value was “significantly decrease” and the “serum saccharides (glucose) level” value was “significantly decrease”. Also, in test [1] (setting [4]), the serum cholesterol entry is recorded as “decreased” and the serum triglycerides entry is recorded as “significantly decrease”.

Consider `CO[C@H]1C[C@H](O[C@H]2[C@H](C)O[C@@H](O[C@@H]3/C(C)=C/C[C@@H]4C[C@@H](C[C@]5(C=C[C@H](C)[C@@H](C6CCCCC6)O5)O4)OC(=O)[C@@H]4C=C(C)[C@@H](O)[C@H]5OC/C(=C\C=C\[C@@H]3C)[C@]54O)C[C@@H]2OC)O[C@@H](C)[C@@H]1O` [doramectin], for which, in test [2], the “cholesterol level in high density lipoprotein” value was “significantly downregulated”; the “cholesterol levels in low density and very low density lipoprotein” value is listed as “downregulated”; the serum cholesterol level entry is reported as “significantly decreases”; the serum glucose level result is on record as “significantly decreases”. In test [2], the “serum triglyceride (Tg) level” value is on record as “significantly decrease”. For the same molecule, in test [3], the serum cholesterol level result is “not producing any significant change” and the serum glucose level result is “not producing any significant change”. Further, in test [1], the “cholesterol in high density lipoprotein in serum” value is “significantly decrease”, the “cholesterol in low density/very low density lipoprotein in serum” value is on record as “significantly decrease” and the “serum saccharides (glucose) level” value is on record as “significantly decrease”. In test [1] (setting [4]), the serum cholesterol result is given as “decreased” and the serum triglycerides result is “significantly decrease”.
